Reference: PMC9448861 (Frontiers in Pharmacology, 2022)
Like-named read-outs stand apart in the source and are kept apart here.

Legend:
[1] = Pharmacokinetics of ketamine and its metabolite hydroxynorketamine in mouse serum, hippocampus and frontal cortex (noncompartmental analysis, LC-MS/MS); format: in vivo, C57BL/6J mice; conditions: for AUC0-∞ / t0.5λz / tmax / Cmax / MRT / k el / CL/F / Vd/F: ketamine 10 mg/kg i.p.; for Kp / Cmax / MRT / k el / CL/F / Vd/F: male, C57BL/6J, mouse, 10 mg/kg; for Kp: intraperitoneal; for Cmax / MRT / k el / CL/F / Vd/F: ip; for Cmax: read-out: Cmax; for MRT: read-out: MRT (converted); for k el: read-out: λz (converted); for Vd/F: read-out: Vz/F
[2] = test system: mice subjected to CRS and CRS + ZnD; assay: Tail suspension test (TST) in mice subjected to CRS or CRS + ZnD; format: in vivo, C57BL/6J mice; conditions: three doses, 72 h after the last treatment
Method: (§1) All the compounds/drugs used in the study were obtained commercially, except for hyperforin (sodium salt), which was received as a gift from Dr. Wilmar Schwabe GmbH and Co (Karlsruhe, Germany). […] The control group received only 0.9% NaCl.
(§2) One week after acclimation, the mice were subjected to either a zinc-adequate feed (ZnA, 50 mg/kg) or zinc-deficient/low-Zn feed (ZnD, 3 mg/kg). Beginning from the second week, some ZnD mice were additionally subjected to 3 weeks of CRS. At the beginning of the 5th week, the mice were subjected to their appropriate treatment schedules or behavioral tests (see schemes in the figures).
(§3) CRS was performed in accordance with the procedures of [Ding et al. (2016]) with modifications. Mice from the stress groups were restrained in well-ventilated tubes with caps and holes for breathing (in a separate room from the control groups) for 3 h/day over 3 weeks. After each restraint period, the mice were transferred to housing cages. The control mice were housed at 6 mice per cage in an enriched environment and were handled every third day.
The TST was performed as described in a previous work ([Pochwat et al., 2018]). Briefly, each mouse was suspended individually by the tail using adhesive tape (2 cm from the tail tip) affixed to a solid flat surface, and immobility times were measured for 6 min. […]

[3] = test system: treatment-resistant depression; design: method as in Serafini et al., 2014; conditions: ref Serafini et al., 2014; cited from earlier work
[4] = test system: mice subjected to CRS and CRS + ZnD; assay: Sucrose preference test (SPT) in mice subjected to CRS or CRS + ZnD; format: in vivo, C57BL/6J mice; conditions: three doses (ketamine 10 mg/kg, Ro 10 mg/kg, Hyp 2.5 mg/kg + Lan 10 mg/kg), 24 h after the last treatment
Method: as §1, §2, §3
Seven days before the tests, the control and stressed mice were singly housed. The tests were carried out as follows. Two bottles (water and 1% sucrose solution) were placed in each cage 63 h before the test. Twenty-four hours later, the bottles were switched from right to left. Fifteen hours before the tests, the animals were deprived of food, water, and sucrose. The tests lasted 2 h, and sucrose preference was calculated as a percentage of the volume of sucrose intake over the total volume of fluid intake (water and sucrose solution). The SPT was performed during the light phase.

[5] = test system: Zn levels in the Hp and FC; assay: Analysis of zinc (F-AAS) in the Hp and FC; format: in vivo, C57BL/6J mice; conditions: CRS + ZnD mice; three doses
Method: as §1
The samples were mineralized before the experiments. Briefly, three independent test portions of 0.5 g each were weighed from each sample and transferred to Teflon vessels. Then, 2 mL of 30% H2O2 and 6 mL of 65% HNO3 (V) were added, and the mixture was subjected to wet mineralization in a closed system in a Magnum II mineralizer (ERTEC). Mineralization was carried out for 75 min with three cycles of magnetron operation, where the first 30 min was at 60% power, next 15 min was at 80% power, and the remaining 30 min was at 100% power. The mineralized solution thus obtained was heated on a hot plate at 120 °C for 60 min to remove the excess reagents. The samples were then quantitatively transferred to 10 mL flasks and used to determine the zinc content via the F–AAS method (adsorption and emission technique). An atomic absorption spectrometer (iCE 3500, Thermo Scientific, UK) was used to measure the Zn content; each sample was analyzed independently thrice, and the obtained results are presented as mean value ± standard error of mean (SEM).

[6] = frontal cortex, frontal cortex, CRS + ZnD mice
[7] = frontal cortex, frontal cortex, CRS mice
[8] = frontal cortex, frontal cortex, Control mice
[9] = hippocampus, hippocampus, CRS + ZnD mice
[10] = hippocampus, hippocampus, CRS mice
[11] = hippocampus, hippocampus, Control mice

With `CNC1(c2ccccc2Cl)CCCCC1=O` (centres unmarked) [Ketamine, ketamine] the “AUC0-∞” value ([1]; frontal cortex, CRS + ZnD mice) was 65.97 µg·min/g, the t0.5λz ([1]; frontal cortex, CRS + ZnD mice) was 32.31 min and the tmax ([1]; frontal cortex, CRS + ZnD mice) was 10 min. For the same compound, the “AUC0-∞” value ([1]; frontal cortex, CRS mice) was 106.58 µg·min/g, the t0.5λz ([1]; frontal cortex, CRS mice) was 34.92 min and the tmax ([1]; frontal cortex, CRS mice) was 10 min. The “AUC0-∞” value ([1]; frontal cortex, Control mice) was 97.81 µg·min/g, the t0.5λz ([1]; frontal cortex, Control mice) was 30.49 min and the “AUC0-∞” value ([1]; hippocampus, CRS + ZnD mice) was 58.49 µg·min/g. The t0.5λz ([1]; hippocampus, CRS + ZnD mice) was 42.69 min, the tmax ([1]; hippocampus, CRS + ZnD mice) was 10 min and the “AUC0-∞” value ([1]; hippocampus, CRS mice) was 96.13 µg·min/g. For the same compound, the t0.5λz ([1]; hippocampus, CRS mice) was 39.68 min, the tmax ([1]; hippocampus, CRS mice) was 10 min and the “AUC0-∞” value ([1]; hippocampus, Control mice) was 80.90 µg·min/g. For the same compound, the t0.5λz ([1]; hippocampus, Control mice) was 37.36 min, the Kp ([1]; brain structure (not specified) / serum, CRS + ZnD animals, read-out: tissue-to-serum AUC ratio for the parent drug) was 1.3 and the Kp ([1]; brain structure (not specified) / serum, CRS + ZnD animals, read-out: tissue-to-serum Cmax ratio for the parent drug) was 1. It also gave a Cmax [1, 6] of 2650 ng/g, an MRT [1, 6] of 28.8 min and a k el [1, 6] of 0.000367 s⁻¹. For the same compound, the Cmax [1, 7] was 3030 ng/g, the MRT [1, 7] was 28.4 min and the k el [1, 7] was 0.000333 s⁻¹. The Cmax [1, 8] was 3460 ng/g, the MRT [1, 8] was 30.1 min and the k el [1, 8] was 0.000383 s⁻¹. For the same compound, the Kp ([1]; hippocampus and frontal cortex / serum, control and stress (CRS) groups, Hp and FC, read-out: tissue-to-serum Cmax and AUC ratios for the parent drug) was 2.45 to 2.84, the Cmax [1, 9] was 2310 ng/g and the MRT [1, 9] was 31.3 min. For the same compound, the k el [1, 9] was 0.000267 s⁻¹, the Cmax [1, 10] was 3180 ng/g and the MRT [1, 10] was 28.5 min. It also gave a k el [1, 10] of 0.000283 s⁻¹, a Cmax [1, 11] of 2990 ng/g and an MRT [1, 11] of 30.4 min. For the same compound, the k el [1, 11] was 0.000317 s⁻¹, the CL/F ([1]; serum, serum, CRS + ZnD mice) was 220 mL/min/kg and the Cmax ([1]; serum, serum, CRS + ZnD mice) was 2150 ng/mL. It also gave an MRT ([1]; serum, serum, CRS + ZnD mice) of 22 min, a Vd/F ([1]; serum, serum, CRS + ZnD mice) of 11.6 L/kg and a k el ([1]; serum, serum, CRS + ZnD mice) of 0.000317 s⁻¹. For the same compound, the Cmax ([1]; serum, serum, CRS mice) was 1120 ng/mL, the MRT ([1]; serum, serum, CRS mice) was 29.8 min and the Vd/F ([1]; serum, serum, CRS mice) was 14.6 L/kg. The k el ([1]; serum, serum, CRS mice) was 0.000317 s⁻¹, the Cmax ([1]; serum, serum, Control mice) was 1130 ng/mL and the MRT ([1]; serum, serum, Control mice) was 34.2 min. It also gave a Vd/F ([1]; serum, serum, Control mice) of 16 L/kg, a k el ([1]; serum, serum, Control mice) of 0.000317 s⁻¹ and a CL/F ([1]; serum, CRS mice) of 270 mL/min/kg. For the same compound, the CL/F ([1]; serum, Control mice) was 300 mL/min/kg, the t0.5λz ([1]; serum, CRS + ZnD mice) was 35.93 min and the tmax ([1]; serum, CRS + ZnD mice) was 10 min. The t0.5λz ([1]; serum, CRS mice) was 37.06 min, the tmax ([1]; serum, CRS mice) was 10 min and the t0.5λz ([1]; serum, Control mice) was 36.70 min. The “immobility time in the TST” value [2] was “ineffective”, the estimated efficacy [3] was 50–70% and the “sucrose preference in the SPT” value ([4]; CRS + ZnD mice) was “failed to restore sucrose preference”. For the same compound, the “sucrose preference in the SPT” value ([4]; CRS mice) was “restored the sucrose preference” and the “Zn levels in the Hp and FC” value [5] was “reduced the Zn levels”.
